Test results from ChEMBL document CHEMBL2390853, “The products of the reaction between 6-amine-1,3-dimethyl uracil and bis-chalcones induce cytotoxicity with massive vacuolation in HeLa cervical cancer cell line” (Eur J Med Chem, 2013).
The source made the active and inactive calls. No cut-off for these calls is given here.

What was measured:
HeLa [1] = test: Cell cycle arrest in human HeLa cells assessed as increase in accumulation at G1 phase at 13 uM after 48 to 72 hrs by propidium iodide staining-based FACS flow cytometric analysis; assay type: functional
HeLa [2] = test: Induction of autophagy in human HeLa cells assessed as large vacuole formation at 13 uM after 24 hrs by inverted microscopic analysis in presence of spautin-1; assay type: functional, cell-based
HeLa [3] = test: Induction of apoptosis in human HeLa cells assessed as change in procaspase-3 expression at 2.5 to 15 uM after 24 hrs by Western blot analysis; assay type: functional, cell-based
MCF7 [4] = test: Cytotoxicity against human MCF7 cells assessed as growth inhibition after 48 hrs by MTT assay; assay type: functional, cell-based; conditions: MCF7, 48 h
HeLa [5] = test: Induction of apoptosis in human HeLa cells assessed as change in Bax expression at 2.5 to 15 uM after 24 hrs by Western blot analysis; assay type: functional, cell-based
HeLa [6] = test: Cell cycle arrest in human HeLa cells assessed as accumulation at sub G1 phase at 13 uM after 72 hrs by propidium iodide staining-based FACS flow cytometric analysis; assay type: functional
HeLa [7] = test: Induction of apoptosis in human HeLa cells assessed as change in Bcl-2 expression at 2.5 to 15 uM after 24 hrs by Western blot analysis; assay type: functional, cell-based
HeLa [8] = test: Induction of cytoplasmic vacuolation in human HeLa cells at 13 uM after 24 hrs by hematoxylin staining-based light microscopic analysis; assay type: functional, cell-based
HeLa [9] = test: Induction of necrosis in human HeLa cells assessed as inhibition of cell viability at 13 uM after 24 to 48 hrs by MTT assay; assay type: functional, cell-based
[10] = Cytotoxicity against human C33 cells assessed as growth inhibition after 48 hrs by MTT assay; assay type: functional, cell-based; conditions: C33, 48 h
HeLa [11] = test: Cytotoxicity against human HeLa cells assessed as growth inhibition after 48 hrs by MTT assay; assay type: functional, cell-based
HeLa [12] = test: Induction of necrosis in human HeLa cells assessed as inhibition of cell viability at 13 uM after 24 to 48 hrs by tryphan blue exclusion assay; assay type: functional, cell-based
HeLa [13] = test: Induction of apoptosis in human HeLa cells assessed as DNA fragmentation at 13 uM after 48 hrs by TUNEL assay; assay type: functional, cell-based
K562 [14] = test: Cytotoxicity against human K562 cells assessed as growth inhibition after 48 hrs by MTT assay; assay type: functional, cell-based; conditions: K562, 48 h
HeLa [15] = test: Induction of autophagy in human HeLa cells assessed as increase in conversion of LC3B-1 to LC3B-2 at 13 uM after 24 hrs by Western blot analysis; assay type: functional, cell-based
HeLa [16] = test: Cytotoxicity against human HeLa cells assessed as cell viability at 13 uM after 48 hrs by MTT assay in presence of gallic acid; assay type: functional, cell-based
HeLa [17] = test: Induction of cytoplasmic vacuolation in human HeLa cells at 13 uM after 24 hrs by neutral red staining-based light microscopic analysis; assay type: functional, cell-based
HeLa [18] = test: Induction of autophagy in human HeLa cells assessed as increase in conversion of LC3B-1 to LC3B-2 at 13 uM after 24 hrs by Western blot analysis in presence of spautin-1; assay type: functional, cell-based
SW480 [19] = test: Cytotoxicity against human SW480 cells assessed as growth inhibition after 48 hrs by MTT assay; assay type: functional, cell-based; conditions: SW480, 48 h
[20] = Cytotoxicity against human HEK293Q cells assessed as growth inhibition after 48 hrs by MTT assay; assay type: cell-based
HeLa [21] = test: Cytotoxicity against human HeLa cells assessed as cell viability at 13 uM after 24 hrs by MTT assay in presence of spautin-1; assay type: functional, cell-based
[22] = Cytotoxicity against human CALO cells assessed as growth inhibition after 48 hrs by MTT assay; assay type: functional, cell-based
HeLa [23] = test: Cell cycle arrest in human HeLa cells assessed as effect on G2/M phase at 13 uM after 12 to 72 hrs by propidium iodide staining-based FACS flow cytometric analysis; assay type: functional
HeLa [24] = test: Cell cycle arrest in human HeLa cells assessed as decrease in reduction in cells at S phase at 13 uM after 72 hrs by propidium iodide staining-based FACS flow cytometric analysis; assay type: functional
HeLa [25] = test: Induction of cytoplasmic vacuolation in human HeLa cells assessed as change in cell morphology at 13 uM after 24 hrs by hematoxylin staining-based light microscopic analysis in presence of cycloheximide; assay type: functional
HeLa [26] = test: Induction of apoptosis in human HeLa cells assessed as change in p53 expression at 2.5 to 15 uM after 24 hrs by Western blot analysis; assay type: functional, cell-based
HeLa [27] = test: Induction of necrosis in human HeLa cells at 13 uM after 24 to 48 hrs by LDH release assay; assay type: functional, cell-based
SW-620 [28] = test: Cytotoxicity against human SW620 cells assessed as growth inhibition after 48 hrs by MTT assay; assay type: functional, cell-based; conditions: SW-620, 48 h
HeLa [29] = test: Induction of autophagy in human HeLa cells assessed as increase in conversion of LC3B-1 to LC3B-2 at 10 uM after 3 hrs by Western blot analysis; assay type: functional, cell-based
HeLa [30] = test: Induction of cytoplasmic vacuolation in human HeLa cells; assay type: functional, cell-based
HeLa [31] = test: Induction of apoptosis in human HeLa cells assessed as DNA fragmentation at 0.25 uM after 48 hrs by TUNEL assay; assay type: functional, cell-based
HeLa [32] = test: Induction of apoptosis in human HeLa cells assessed as change in procaspase-3 expression at 0.25 uM after 24 hrs by Western blot analysis; assay type: functional, cell-based
HeLa [33] = test: Cell cycle arrest in human HeLa cells assessed as accumulation at sub G1 phase at 0.25 uM after 48 to 72 hrs by propidium iodide staining-based FACS flow cytometric analysis; assay type: functional
HeLa [34] = test: Induction of apoptosis in human HeLa cells; assay type: functional, cell-based
HeLa [35] = test: Cell cycle arrest in human HeLa cells assessed as accumulation at polyploidy region at 0.25 uM after 48 to 72 hrs by propidium iodide staining-based FACS flow cytometric analysis; assay type: functional
HeLa [36] = test: Cell cycle arrest in human HeLa cells assessed as accumulation at G2/M phase at 0.25 uM after 12 hrs by propidium iodide staining-based FACS flow cytometric analysis; assay type: functional
HeLa [37] = test: Induction of apoptosis in human HeLa cells assessed as change in p53 expression at 0.25 uM after 24 hrs by Western blot analysis; assay type: functional, cell-based
HeLa [38] = test: Induction of apoptosis in human HeLa cells assessed as change in Bax expression at 0.25 uM after 24 hrs by Western blot analysis; assay type: functional, cell-based
HeLa [39] = test: Cytotoxicity against human HeLa cells assessed as cell viability at 50 uM after 3 hrs; assay type: cell-based
K562 [40] = test: Cytotoxicity against human K562 cells assessed as growth inhibition at 0.25 to 100 uM after 48 hrs by MTT assay; assay type: functional, cell-based
SW-620 [41] = test: Cytotoxicity against human SW620 cells assessed as growth inhibition at 0.25 to 100 uM after 48 hrs by MTT assay; assay type: functional, cell-based
[42] = Cytotoxicity against human HEK293Q cells assessed as growth inhibition at 0.25 to 100 uM after 48 hrs by MTT assay; assay type: cell-based
CALO = test: Cytotoxicity against human CALO cells assessed as growth inhibition at 0.25 to 100 uM after 48 hrs by MTT assay; assay type: functional, cell-based
MCF7 [43] = test: Cytotoxicity against human MCF7 cells assessed as growth inhibition at 0.25 to 100 uM after 48 hrs by MTT assay; assay type: functional, cell-based
HeLa [44] = test: Cytotoxicity against human HeLa cells assessed as growth inhibition at 0.25 to 100 uM after 48 hrs by MTT assay; assay type: functional, cell-based
SW480 [45] = test: Cytotoxicity against human SW480 cells assessed as growth inhibition at 0.25 to 100 uM after 48 hrs by MTT assay; assay type: functional, cell-based
C33 = test: Cytotoxicity against human C33 cells assessed as growth inhibition at 0.25 to 100 uM after 48 hrs by MTT assay; assay type: functional, cell-based

## Cn1cccc1/C=C1\CCCc2c1nc1c(c2-c2cccn2C)c(=O)n(C)c(=O)n1C
HeLa [1]
  Activity: Active
HeLa [2]
  Activity: inactive
HeLa [3]
  Activity: inactive
MCF7 [4]
  IC50: 9.33 µM
HeLa [5]
  Activity: inactive
HeLa [6]
  Activity: inactive
HeLa [7]
  Activity: inactive
HeLa [8]
  Activity: Active
HeLa [9]
  Activity: Active
[10]
  IC50: 22.2 µM
HeLa [11]
  IC50: 13.1 µM
HeLa [12]
  Activity: Active
HeLa [13]
  Activity: inactive
K562 [14]
  IC50: 10.4 µM
HeLa [15]
  Activity: Active
HeLa [16]
  Activity: Active
HeLa [17]
  Activity: Active
HeLa [18]
  Activity: inactive
SW480 [19]
  IC50: 4.4 µM
[20]
  IC50: 60.1 µM
HeLa [21]
  Activity: Active
[22]
  IC50: 13.2 µM
HeLa [23]
  Activity: inactive
HeLa [24]
  Activity: Active
HeLa [25]
  Activity: Active
HeLa [26]
  Activity: inactive
HeLa [27]
  Activity: Active
SW-620 [28]
  IC50: 8.54 µM

## Cn1cccc1/C=C1\COCc2c1nc1c(c2-c2cccn2C)c(=O)n(C)c(=O)n1C
MCF7 [4]
  IC50: 8.37 µM
[10]
  IC50: 21.6 µM
HeLa [11]
  IC50: 19.6 µM
K562 [14]
  IC50: 37.6 µM
SW480 [19]
  IC50: 28.2 µM
[20]
  IC50: 67.7 µM
[22]
  IC50: 43.7 µM
SW-620 [28]
  IC50: 14 µM

## Fc1ccc(CNc2ncnc3ccc(F)cc23)cc1
HeLa [29]
  Activity: inactive

## Cn1c(=O)c2c(-c3ccsc3)c3c(nc2n(C)c1=O)/C(=C/c1ccsc1)CCC3
MCF7 [4]
  IC50: > 100 µM
HeLa [30]
  Activity: inactive
[10]
  IC50: > 100 µM
HeLa [11]
  IC50: > 100 µM
K562 [14]
  IC50: > 100 µM
SW480 [19]
  IC50: > 100 µM
[20]
  IC50: > 100 µM
[22]
  IC50: > 100 µM
SW-620 [28]
  IC50: > 100 µM

## CC(=O)O[C@H]1C(=O)[C@@]2(C)[C@H]([C@H](OC(=O)c3ccccc3)[C@]3(O)C[C@H](OC(=O)[C@H](O)[C@@H](NC(=O)c4ccccc4)c4ccccc4)C(C)=C1C3(C)C)[C@]1(OC(C)=O)CO[C@@H]1C[C@@H]2O
HeLa [31]
  Activity: Active
HeLa [32]
  Activity: inactive
HeLa [33]
  Activity: Active
HeLa [34]
  Activity: Active
HeLa [35]
  Activity: Active
HeLa [36]
  Activity: Active
HeLa [37]
  Activity: inactive
HeLa [38]
  Activity: inactive

## C[C@@H]1C[C@@H]([C@H](O)CC2CC(=O)NC(=O)C2)C(=O)[C@@H](C)C1 [CYCLOHEXIMIDE]
HeLa [39]
  Activity: Non-toxic

## Cn1c(=O)c2c(-c3ccsc3)c3c(nc2n(C)c1=O)/C(=C/c1ccsc1)COC3
K562 [40]
  growth inhibition (GI): inactive
SW-620 [41]
  growth inhibition (GI): inactive
[42]
  Activity: Non-toxic
CALO
  growth inhibition (GI): inactive
HeLa [30]
  Activity: inactive
MCF7 [43]
  growth inhibition (GI): inactive
HeLa [44]
  growth inhibition (GI): inactive
SW480 [45]
  growth inhibition (GI): inactive
C33
  growth inhibition (GI): inactive
